Experimental data taken from US9205121B2, “Echinacea formulation” (Integria Healthcare (Australia) PTY LTD, priority 2004, dated 2015).

Experiments:
human liver microsomes = assay type: in vitro ADME
Experimental: Livers were obtained from organ donors according to procedures is approved by the University of Queensland ethics committees. Samples of human liver were frozen in liquid nitrogen and stored at −70° C. prior to use. Microsomes were prepared according to the method of Guengerich except that microsomes were subjected to a final wash in 10 mM Tris-acetate, 1 mM EDTA and 20% glycerol pH 7.4 (resuspension buffer) to remove residual drugs (e.g. phenytoin—data not shown) present in donor livers.
Incubations (0.5 mL) with tissue fractions contained either the microsomal fraction at […] or the cytosolic fraction at 5 mg/mL protein in 100 mM potassium phosphate (pH 7.4) supplemented with is substrates (synthetic alkylamides 6, 11, 3 and 12 or the alkylamide fraction from the ethanolic liquid as required—see Figure legends for concentrations used) added from ethanolic stocks. Final ethanol concentrations were either 0.70% or 0.96% and were consistent in each assay. Reactions were initiated by the addition of an NADPH-generating system consisting of (final concentrations) […] NADP+, 10 mM glucose-6-phosphate and 0.5 μ/mL glucose-6-phosphate dehydrogenase. Negative controls and cytosolic incubations lacked an NADPH-generating system. Reaction mixtures were incubated at 37° C. with gentle agitation for the duration of each experiment. Reactions were terminated by addition of an equal volume of 100% methanol to a sample aliquot. Diluted samples were then centrifuged at 16000×g for 2 minutes and supernatants stored at −20° C. until analysis by LCMS.
Alkylamide concentrations in samples were determined by LCMS using a gradient HPLC system (Shimadzu LC1OAT) coupled to a quadrupole mass spectrometer (Shimadzu, QP8000a) operating in positive SIM mode with an APCI interface. The mobile phases were a mixture of water and acetonitrile. Alkylamides 6 and 3 were detected using a 65% acetonitrile isocratic run. Alkylamides 11 and 12 were detected using an 85% acetonitrile isocratic run. The alkylamide fraction was analysed using a gradient that increased from 20% to 40% acetonitrile over the first 5 minutes, then to 80% acetonitrile over the following 15 minutes and to 100% over the next 3 minutes followed by a re-equilibration period at 20% acetonitrile prior to the next injection. A similar gradient was used in scan and then SIM (M+1 of 248, 264, 246, 192, 280 and 282) modes to identify metabolites of 3. A C18, 3 m, 100×2.00 mm Phenomenex Luna column was used with a solvent flow rate of 0.3 mL/minute. All alkylamides were linear in the range 0.001-10 mg/mL (R^2>0.9) with a coefficient of variation between 4 and 5.
A number of pure, synthetic alkylamides (6, 11 3 and 12 as shown in FIG. 1) as well as the complex mixture of alkylamides obtained from an ethanolic extract of Echinacea were investigated for their susceptibility to liver P450-mediated degradation in microsomal preparations from four different subjects. The concentration of each substrate remaining at the given time points was quantified with LCMS and rates of substrate depletion were calculated as a percentage of the original concentration. […] From FIG. 3 it can be seen that there was a clear difference in the ability of the liver microsomal P450s to metabolise the synthetic 2-ene and the 2,4-diene alkylamides. […] In contrast, the 2,4-dienes were rapidly metabolised with only 9±2% of the original concentration of 3 and 2±1% of the original concentration of 12 detected after 2 hours. […]

TNF-α = TNF-α production under LPS stimulated conditions in macrophages; assay type: cell-based, mouse; conditions: RAW 264.7 macrophages
Text: Macrophages play an essential role in the development of specific and non-specific immune responses. Upon activation by a variety of stimuli macrophages release a number of products having biological activity. Such products include cytokines, such as TNF-α, […] and nitric oxide (NO). Macrophages undergo a process of cellular “activation” which is associated with morphological, functional, and biochemical changes in the cells in response to inflammatory signals or antigens. One prominent characteristic of activated macrophages is their increased capacity to release pro-inflammatory and cytotoxic mediators, which help aid in the resolution of infection or inflammation. As a prelude to macrophage activation LPS must bind to a receptor on the macrophage cell surface. Several LPS receptors have been identified in different macrophages with the most thoroughly studied receptor being the CD14 receptor.
The synthetic alkylamides correspond to the major 2-ene and 2,4-diene alkylamides found in Echinacea. These alkylamides are illustrated in FIG. 1 as compounds 6 and 3 respectively.

phagocytosis = conditions: in vitro and in vivo; cited from earlier work

C#CC#CCCCC/C=C/C(=O)NCC(C)C [alkylamide 6, (2E)-N-isobutylundeca-2-ene-8,10-diynamide]
% of initial levels still present (human liver microsomes; human, 2 h, pH 7.4): 91±24%

CC#CC#CCCCC/C=C/C(=O)NCC(C)C [alkylamide 11, (2E)-N-isobutyldodeca-2-ene-8,10-diynamide]
rate of alkylamide metabolism relative to the rate found for 6 (human liver microsomes): two fold higher

CCCCCCC/C=C/C=C/C(=O)NCC(C)C [alkylamide 12, (2E-4E)-N-isobutyldodea-2,4-dienamide]
rate of alkylamide metabolism relative to the rate found for 6 (human liver microsomes): ten fold higher

O=C(/C=C/c1ccc(O)c(O)c1)O[C@@H](C(=O)O)[C@@H](OC(=O)/C=C/c1ccc(O)c(O)c1)C(=O)O [cichoric acid]
TNF-α production under LPS stimulated conditions (TNF-α): significantly decreased | stimulation of phagocytosis (phagocytosis): marked stimulation
